According to patent US20180027748A1, “METHOD FOR PRODUCING METABOLITE CAPABLE OF IMPROVING DROUGHT TOLERANCE USING MICROORGANISM, AND METHOD FOR IMPROVING DROUGHT TOLERANCE OF PLANT USING SAID METABOLITE” (priority 2015, published 2018):

Test system: white radish seeds
Test: Drought tolerance test on white radish after removal of aluminum foil
Format: in vivo
Settings: foil removed, samples A/B/C 10/100/300 μg/mL·agar extract, D 1 μg/mL·agar ABA, dH2O control G 27%
Experimental: Samples A, B, and C were prepared containing, respectively, 10, 100, and 300 μg/mL·agar of the drought tolerance improving metabolite producing bacterium extract obtained by the method described above. The samples were each dispensed into 10 test tubes.
ABA standard samples D, E, and F were prepared containing, respectively, 1, 10, and 20 μg/mL·agar of abscisic acid (ABA) as a standard. The samples were each dispensed into 10 test tubes.
After a culture medium was prepared in each sample, one white radish seed was placed in each test tube. After each test tube was capped with aluminum foil, each seed was germinated in the dark.
Samples A to C, D and G prepared in test method 1 described above were subjected to a drought tolerance test after the aluminum foil was removed from each test tube.

**Q.** For `CC1=CC(=O)CC(C)(C)C1(O)/C=C/C(C)=C\C(=O)O` (stereo not shown) [Sample D, abscisic acid], which “percentage of sound individuals (drought tolerance level)” value is on record?
**A.** The value was 66%.
